Laboratory results reported in patent US10961202B2, “Bis-benzimidazole compounds and methods of using the same” (THE SCRIPPS RESEARCH INSTITUTE, priority 2017, dated 2021).

Test system: r(CUG)12-MBNL1 complex
Test: Inhibition of the r(CUG)12-MBNL1 complex measured by TR-FRET
Type: biochemical
Settings: Table L; 80 nM RNA, 60 nM MBNL1-His6

| IC50 [µM] | Compound |
| --- | --- |
| > 200 | Cn1c(-c2ccc(-c3nc4ccc(N)cc4n3C)cc2)nc2cc(N)ccc21 [Compound 84, 2-[4-(6-amino-1-methyl-1H-benzimidazol-2-yl)phenyl]-1-methyl-1H-benzimidazol-5-amine] |
| > 200 | Cn1c(-c2ccc(-c3nc4ccc(N)cc4n3C)cc2)nc2ccc(N)cc21 [Compound 85, 2,2′-(1,4-phenylene)bis(1-methyl-1H-benzimidazol-6-amine)] |
| > 200 | Cn1c(-c2ccc(-c3nc4ccc(NC(=N)N)cc4n3C)cc2)nc2cc(NC(=N)N)ccc21 [Compound 87] |
| > 200 | Cn1c(-c2ccc(-c3nc4ccc(NC(=N)N)cc4n3C)cc2)nc2ccc(NC(=N)N)cc21 [Compound 88] |
| > 200 | Cn1c(-c2ccc(-c3nc4cc(Br)ccc4n3C)cc2)nc2cc(Br)ccc21 [Compound 89, 1,4-bis(5-bromo-1-methyl-1H-benzo[d]imidazol-2-yl)benzene] |
| > 200 | Cn1c(-c2ccc(-c3nc4ccc(Br)cc4n3C)cc2)nc2ccc(Br)cc21 [Compound 90, 1,4-bis(6-bromo-1-methyl-1H-benzo[d]imidazol-2-yl)benzene] |
| 4.6 | N=C(N)Nc1ccc(-c2nc3cc(-c4ccc5[nH]c(-c6ccc(NC(=N)N)cc6)nc5c4)ccc3[nH]2)cc1 [Compound 96] |
| 71 | NC(=O)Nc1ccc(-c2nc3cc(-c4ccc5[nH]c(-c6ccc(NC(N)=O)cc6)nc5c4)ccc3[nH]2)cc1 [Compound 97] |
| 144 | N=C(NO)c1ccc(-c2nc3cc(-c4ccc5[nH]c(-c6ccc(C(=N)NO)cc6)nc5c4)ccc3[nH]2)cc1 [Compound 98] |
| 15.2 | N=C(N)c1ccc(-c2nc3cc(-c4ccc5[nH]c(-c6ccc(C(=N)N)cc6)nc5c4)ccc3[nH]2)cc1 [Compound 99] |
| 6.2 | N#Cc1ccc(-c2nc3cc(-c4ccc5[nH]c(-c6ccc(C#N)cc6)nc5c4)ccc3[nH]2)cc1 [Compound 100] |
| > 200 | NC(=O)c1ccc(-c2nc3cc(-c4ccc5[nH]c(-c6ccc(C(N)=O)cc6)nc5c4)ccc3[nH]2)cc1 [Compound 101] |
| > 200 | Brc1ccc(-c2nc3cc(-c4ccc5[nH]c(-c6ccc(Br)cc6)nc5c4)ccc3[nH]2)cc1 [Compound 104] |
| > 200 | Oc1ccc(-c2nc3cc(-c4ccc5[nH]c(-c6ccc(O)cc6)nc5c4)ccc3[nH]2)cc1 [Compound 105] |
| > 200 | COc1ccc(-c2nc3cc(-c4ccc5[nH]c(-c6ccc(OC)cc6)nc5c4)ccc3[nH]2)cc1 [Compound 106] |
| > 200 | c1cn(-c2ccc(-c3nc4cc(-c5ccc6[nH]c(-c7ccc(-n8ccnc8)cc7)nc6c5)ccc4[nH]3)cc2)cn1 [Compound 107] |
| 15 | CN(C)CCNC(=O)c1ccc(-c2nc3cc(-c4ccc5[nH]c(-c6ccc(C#N)cc6)nc5c4)ccc3[nH]2)cc1 [Compound 109] |
| 6.9 | CNCCNC(=O)c1ccc(-c2nc3cc(-c4ccc5[nH]c(-c6ccc(C(=O)NCCN(C)C)cc6)nc5c4)ccc3[nH]2)cc1 [Compound 110, N-(2-(dimethylamino)ethyl)-4-(2′-(4-((2-(methylamino)ethyl)carbamoyl)phenyl)-1H,1′H-[5,5′-bibenzo[d]imidazol]-2-yl)benzamide] |
| 6.9 | CNCCNC(=O)c1ccc(-c2nc3cc(-c4ccc5[nH]c(-c6ccc(C(=O)NCCNC)cc6)nc5c4)ccc3[nH]2)cc1 [Compound 111, 4,4′-(1H,1′H-[5,5′-bibenzo[d]imidazole]-2,2′-diyl)bis(N-(2-(methylamino)ethyl)benzamide)] |
| 9.5 | C#CCCCCN(C)CCNC(=O)c1ccc(-c2nc3cc(-c4ccc5[nH]c(-c6ccc(C(=O)NCCN(C)C)cc6)nc5c4)ccc3[nH]2)cc1 [Compound 114, N-(2-(dimethylamino)ethyl)-4-(2′-(4-((2-(hex-5-yn-1-yl(methyl)amino)ethyl)carbamoyl)phenyl)-1H,1′H-[5,5′-bibenzo[d]imidazol]-2-yl)benzamide] |
| 8.9 | CN1CCN(CCNC(=O)c2ccc(-c3nc4cc(-c5ccc6[nH]c(-c7ccc(C(=O)NCCN8CCN(C)CC8)cc7)nc6c5)ccc4[nH]3)cc2)CC1 [Compound 117] |
| > 200 | N#Cc1cccc(-c2nc3cc(-c4ccc5[nH]c(-c6cccc(C#N)c6)nc5c4)ccc3[nH]2)c1 [Compound 120] |
| > 200 | Cn1c(-c2ccc(N)cc2)nc2cc(-c3ccc4nc(-c5ccc(N)cc5)n(C)c4c3)ccc21 [Compound 121, 1,3′-dimethyl-2,2′-bis(4-aminophenyl)-1H,3′H-5,5′-bibenzimidazole] |
| 24 | Cn1c(-c2ccc(N)cc2)nc2cc(-c3ccc4c(c3)nc(-c3ccc(N)cc3)n4C)ccc21 [Compound 122, 1,1′-dimethyl-2,2′-bis(4-aminophenyl)-1H,1′H-5,5′-bibenzimidazole] |
| 25.6 | CC(C)(C)OC(=O)N1CCN(CCNC(=O)c2ccc3nc(-c4ccc(-c5nc6ccc(C(=O)NCCN7CCCCC7)cc6[nH]5)cc4)[nH]c3c2)CC1 [Compound 125] |
| 46 | N=C(N)Nc1cccc(-c2nc3cc(-c4ccc5nc(-c6cccc(N)c6)[nH]c5c4)ccc3[nH]2)c1 [Compound 166] |
| 54.4 | N=C(N)Nc1ccc(-c2nc3cc(-c4ccc5[nH]c(-c6ccc(N)cc6)nc5c4)ccc3[nH]2)cc1 [Compound 167] |

| Compound | IC50 [µM] |
| --- | --- |
| O=[N+]([O-])c1ccc(-c2nc3cc(-c4ccc5[nH]c(-c6ccc([N+](=O)[O-])cc6)nc5c4)ccc3[nH]2)cc1 [Compound 94] | > 200 |
| Nc1ccc(-c2nc3cc(-c4ccc5[nH]c(-c6ccc(N)cc6)nc5c4)ccc3[nH]2)cc1 [Compound 95, 4,4′-(1H,1′H-[5,5′-bibenzo[d]imidazole]-2,2′-diyl)dianiline] | 106 |
| NC(=O)Cc1ccc(-c2nc3cc(-c4ccc5[nH]c(-c6ccc(CC(N)=O)cc6)nc5c4)ccc3[nH]2)cc1 [Compound 124, 2,2′-(1H,1′H-[5,5′-bibenzo[d]imidazole]-2,2′-diylbis(4,1-phenylene))diacetamide] | 170 |
| c1cc(-c2nc3cc(-c4ccc5[nH]c(-c6ccc(CN7CCCC7)cc6)nc5c4)ccc3[nH]2)ccc1CN1CCCC1 [Compound 127, 2,2′-bis(4-(pyrrolidin-1-ylmethyl)phenyl)-1H,1′H-5,5′-bibenzo[d]imidazole] | 27.8 |

Same assay, conditions: Table M; 80 nM RNA, 60 nM MBNL1-His6

| IC50 [µM] | Compound |
| --- | --- |
| 7.9 | NCC(=O)NCC(=O)NCc1cn(CCN2CCN(CCNC(=O)c3ccc4nc(-c5ccc(-c6nc7ccc(C(=O)NCCN8CCCCC8)cc7[nH]6)cc5)[nH]c4c3)CC2)nn1 [Compound 178, N-(2-(4-(2-(4-((2-(2-aminoacetamido)acetamido)methyl)-1H-1,2,3-triazol-1-yl)ethyl)piperazin-1-yl)ethyl)-2-(4-(6-((2-(piperidin-1-yl)ethyl)carbamoyl)-1H-benzo[d]imidazol-2-yl)phenyl)-1H-benzo[d]imidazole-6-carboxamide] |
| 189 | CN(C)CCOCCOc1ccc2nc(-c3ccc(-c4nc5ccc(OCCOCCN(C)C)cc5[nH]4)cc3)[nH]c2c1 [Compound 179, 2,2′-((((1,4-phenylenebis(1H-benzo[d]imidazole-2,6-diyl))bis(oxy))bis(ethane-2,1-diyl))bis(oxy))bis(N,N-dimethylethan-1-amine)] |
| 78.9 | CN(C)CC(C)(C)COc1ccc2nc(-c3ccc(-c4nc5ccc(OCC(C)(C)CN(C)C)cc5[nH]4)cc3)[nH]c2c1 [Compound 180] |
| 54.4 | CN1CC[C@@H](Oc2ccc3nc(-c4ccc(-c5nc6ccc(O[C@@H]7CCN(C)C7)cc6[nH]5)cc4)[nH]c3c2)C1 [Compound 181] |
| 93.6 | CN1CC[C@@H](Oc2ccc3nc(-c4ccc(-c5nc6ccc(O)cc6[nH]5)cc4)[nH]c3c2)C1 [Compound 182] |
| 114 | CN1C(C)(C)CC(Oc2ccc3nc(-c4ccc(-c5nc6ccc(OC7CC(C)(C)N(C)C(C)(C)C7)cc6[nH]5)cc4)[nH]c3c2)CC1(C)C [Compound 183, 1,4-bis(6-((1,2,2,6,6-pentamethylpiperidin-4-yl)oxy)-1H-benzo[d]imidazol-2-yl)benzene] |
| > 200 | CN(C)CC(CN(C)C)Oc1ccc2nc(-c3ccc(-c4nc5ccc(OC(CN(C)C)CN(C)C)cc5[nH]4)cc3)[nH]c2c1 [Compound 184] |
| > 200 | c1cc2nc(-c3ccc(-c4nc5ccc(OCCN6CCOCC6)cc5[nH]4)cc3)[nH]c2cc1OCCN1CCOCC1 [Compound 186] |
| 58.9 | CCN(CC)CCCOc1ccc2nc(-c3ccc(-c4nc5ccc(OCCCN(CC)CC)cc5[nH]4)cc3)[nH]c2c1 [Compound 187] |
| 46.9 | CCN(CC)CCCOc1ccc2nc(-c3ccc(-c4nc5ccc(O)cc5[nH]4)cc3)[nH]c2c1 [Compound 188] |
| 179 | Oc1ccc2nc(-c3ccc(-c4nc5ccc(O)cc5[nH]4)cc3)[nH]c2c1 [Compound 190, 2,2′-(1,4-phenylene)bis(1H-benzo[d]imidazol-6-ol)] |
| 100 | c1cc2nc(-c3ccc(-c4nc5ccc(OCCN6CCCCC6)cc5[nH]4)cc3)[nH]c2cc1OCCN1CCCCC1 [Compound 191] |
| 36.7 | CN(C)CCCCCOc1ccc2nc(-c3ccc(-c4nc5ccc(O)cc5[nH]4)cc3)[nH]c2c1 [Compound 193] |
| 39 | CN1CCC(COc2ccc3nc(-c4ccc(-c5nc6ccc(O)cc6[nH]5)cc4)[nH]c3c2)CC1 [Compound 194, 2-(4-(6-((1-methylpiperidin-4-yl)methoxy)-1H-benzo[d]imidazol-2-yl)phenyl)-1H-benzo[d]imidazol-6-ol] |
| 104 | Oc1ccc2nc(-c3ccc(-c4nc5ccc(OCCN6CCCCC6)cc5[nH]4)cc3)[nH]c2c1 [Compound 195] |
| 106 | CN1CCC[C@H]1COc1ccc2nc(-c3ccc(-c4nc5ccc(O)cc5[nH]4)cc3)[nH]c2c1 [Compound 196] |
| 33.6 | CN(C)CCCCOc1ccc2nc(-c3ccc(-c4nc5ccc(OCCCCN(C)C)cc5[nH]4)cc3)[nH]c2c1 [Compound 197, 4,4′-((1,4-phenylenebis(1H-benzo[d]imidazole-2,6-diyl))bis(oxy))bis(N,N-dimethylbutan-1-amine)] |
| 47.8 | CN1CCC[C@H]1COc1ccc2nc(-c3ccc(-c4nc5ccc(OC[C@@H]6CCCN6C)cc5[nH]4)cc3)[nH]c2c1 [Compound 199] |

| Compound | IC50 [µM] |
| --- | --- |
| COc1ccc2nc(-c3ccc(-c4nc5ccc(OC)cc5[nH]4)cc3)[nH]c2c1 [Compound 189, 1,4-Bis(6-methoxy-1H-benzo[d]imidazol-2-yl)benzene] | > 200 |
